Measured values from paper PMC10045663, “Synthesis, In Vitro Biological Evaluation of Antiproliferative and Neuroprotective Effects and In Silico Studies of Novel 16E-Arylidene-5α,6α-epoxyepiandrosterone Derivatives” (Biomedicines, 2023).
pIC50: −log10 of the molar value.

What was measured:
Type in all cases: cell-based
[1] = system: NHDF cells (normal human dermal fibroblasts); assay: MTT cell proliferation assay, NHDF cells; settings: 72 h, non-tumoral cells, read-out: Estimated IC50, NHDF
[2] = system: PNT1A (normal prostate cells); assay: MTT cell proliferation assay, PNT1A cells; settings: 72 h, non-tumoral cells, read-out: Estimated IC50, PNT1A
[3] = system: PC-3 cells (androgen-independent prostatic cancer); assay: MTT cell proliferation assay, PC-3 cells; settings: 72 h
[4] = system: MCF-7 cells; assay: PI incorporation (propidium iodide staining); settings: 48 h
Procedure: After 48 h of being seeded at the same conditions explained in the previous (Section 2.2.4), MCF-7 cells were treated with the steroidal derivatives 19 and 5-FU at 1 and 10 µM and maintained in culture for 48 h. Untreated cells were also used as a negative control. Subsequently, cells were incubated with 20 µL/per well of a propidium iodide solution (PI; 1 mg/mL in PBS; Sigma-Aldrich Co. LLC) for 25 min at 37 °C. Then, the medium was removed, and the cells were fixed with 10% formalin for 15 min at room temperature. Cells were washed three times with PBS and incubated with 30 µL/per coverslip of Hoechst-33342 (1:500) for 10 min. After incubation, cells were washed three times with PBS. Coverslips were mounted on a drop of the fluoroshield mounting medium on a microscope slide, left to dry for 24 h, and then visualized in a Zeiss Axio Imager A1 microscope with the 40× objective.

Substance: (E)-16-(2,3-Dichlorobenzylidene)-3-hydroxy-5α ,6α -epoxy-10,13-dimethyl-1,3,4,7,8,9,10,11,12,13,15,16-dodecahydro-2H-cyclopenta[α ]phenanthren-17(14H)-one [Compound 19]
- pIC50 [1]: 4.73
- pIC50 [2]: 4.89
- pIC50 ([3]; MTT, tumoral cells, read-out: Estimated IC50, PC-3): 4.72
- decrease on cell proliferation relative to the control ([3]; PC-3, 50 µM): higher than 75%
- PI-positive cells relative to the negative control ([4]; MCF-7, 1 µM): no significant effect
- PI-positive cells relative to the negative control ([4]; MCF-7, 10 µM): significantly increase
- percentage of PI incorporation compared with the positive control (5-FU) ([4]; MCF-7, 10 µM): about three times
